The values that follow come from PMC6153434, “Bystander Effects of Hypoxia-Activated Prodrugs: Agent-Based Modeling Using Three Dimensional Cell Cultures” (Frontiers in Pharmacology, 2018).

For data set [1] the following is noted: pH 7.4.
The conditions of data set [2]: ref Hicks et al., 2010; Wang et al., 2014; Gu et al., 2017; cited from earlier work.
For a further data set, the system named is POR-R cells. The experiment in a line: LC-MS/MS assay for PR104A metabolites in anoxic cultures. In kind it is in vitro ADME. Particulars: 100 μM PR104A, 3 h, anoxia. As to the method:
POR-R cells (10^6 cells/0.5 mL) in 24-well plates were exposed to 100 μM PR104A under anoxia for 3 h. Plates were centrifuged (216 × g, 4°C, 8 min) extracellular medium was removed and proteins precipitated with an equal volume of ice-cold methanol. Cold methanol (100 μL) was then added to each well to extract intracellular PR104A and metabolites. Samples were stored at -80°C, then thawed, centrifuged (13,000 × g, 5 min, 4°C), diluted with two volumes of ammonium formate buffer (4.5 mM, pH 4.5) and analyzed with an Agilent LC-MS/MS (model 6460) using an electrospray ionization/atmospheric pressure chemical ionization multimode source and photodiode array absorbance detector as described previously ([Patel et al., 2007]).

A further data set has as its system HCT116 and HCT116/POR#6. Particulars: published value; PR104H+M model; ref Foehrenbacher et al., 2013; cited from earlier work.
Data set [3] concerns anoxic MCLs of POR-R activators and PORko-G targets. The conditions noted are these: 100 μM in donor; differing proportions of POR-R activators.
For data set [4], the system named is high-POR 'activator' HCT116 cell lines (POR-R, POR-G). In kind it is cell-based.
The subject of data set [5] is POR-null 'target' HCT116 cells in spheroids. In kind it is cell-based.
The subject of data set [6] is POR-R activators and PORko-G targets (HCT116). In words: SN30000 'no bystander effect' agent-based model parameters. Particulars: ABM parameter.
The test system of a further data set is HCT116 cells. The conditions noted are these: cited from earlier work.
The mark [7] stands for this setting: published value, ref Hicks et al., 2010.
Where [8] appears, read: published value, ref Mao et al., 2018.

On to `O=C(NCCO)c1cc([N+](=O)[O-])cc([N+](=O)[O-])c1N(CCCl)CCCl` [IV Cl Cl CH2CH2OH], for which the “Measured logD7.4” value in data set [1] is recorded as 1.92.

As for `CS(=O)(=O)OCCN(CCBr)c1ccc([N+](=O)[O-])c(C(=O)NCC(O)CO)c1[N+](=O)[O-]` (centres unmarked) [VI Br OSO2CH3 CH2CHOHCH2OH], the “Measured logD7.4” value in data set [1] is -0.373.

In the case of `NC(=O)c1cc(N(CCO)CCO)c([N+](=O)[O-])cc1N` [III OH OH H], the “Measured logD7.4” value in [1] is reported as -0.445.

Consider `O=C(NO)c1cc(N(CCCl)CCCl)c([N+](=O)[O-])cc1[N+](=O)[O-]` [I Cl Cl OH], for which, in data set [1], the “Measured logD7.4” value is on record as 1.22.

Turning to `O=C(NCCCO)c1cc(N(CCCl)CCCl)c([N+](=O)[O-])cc1[N+](=O)[O-]` [I Cl Cl (CH2)3OH], the “Measured logD7.4” value in data set [1] is on record as 1.49.

For `CS(=O)(=O)OCCN(CCI)c1cc(C(N)=O)c([N+](=O)[O-])cc1[N+](=O)[O-]` [I Iodo OSO2CH3 H], the “Measured logD7.4” value in data set [1] came to 0.743.

As for `CS(=O)(=O)OCCN(CCBr)c1c(C(N)=O)cc([N+](=O)[O-])cc1[N+](=O)[O-]` [IV Br OSO2CH3 H], the “Measured logD7.4” value in [1] was 1.23.

For the compound `CS(=O)(=O)OCCN(CCBr)c1cc(C(N)=O)c([N+](=O)[O-])cc1[N+](=O)[O-]` [I Br OSO2CH3 H], the “Measured logD7.4” value in data set [1] stood at 0.493.

Turning to `O=C(NCC(O)CO)c1cc([N+](=O)[O-])cc([N+](=O)[O-])c1N(CCBr)CCBr` (centres unmarked) [IV Br Br CH2CHOHCH2OH], the “Measured logD7.4” value in data set [1] is reported as 1.83.

As for `NC(=O)c1cc(N(CCOS(N)(=O)=O)CCOS(N)(=O)=O)c([N+](=O)[O-])cc1[N+](=O)[O-]` [I OSO2NH2 OSO2NH2 H], the “Measured logD7.4” value in data set [1] was -0.95.

For the compound `NC(=O)c1cc(N(CCBr)CCBr)c([N+](=O)[O-])cc1[N+](=O)[O-]` [I Br Br H], in [1], the “Measured logD7.4” value amounted to 1.97.

With `[O-][n+]1nc(CCCN2CCOCC2)nc2cc3c(cc21)CCC3` [1-oxide], the “cytotoxicity of downstream metabolites of SN30000” value in data set [2] is “non-cytotoxic”.

For `Nc1cc(C(=O)NCCO)c(N(CCCl)CCCl)c([N+](=O)[O-])c1` [Metabolite B], the “extracellular concentration relative to PR104H” value with POR-R cells (P = 0.02) is given as “fivefold higher”.

Regarding `CS(=O)(=O)OCCN(CCBr)c1c(C(=O)NCCO)cc(NO)cc1[N+](=O)[O-]` [PR104H], in the data set with HCT116 and HCT116/POR#6, the “Kc, intrinsic cytotoxic potency” value is 92 M⁻¹ s⁻¹. For the same compound, the intracellular metabolite profile result with POR-R cells is “major intracellular metabolite”.

For the compound `NC(=O)c1cc(N(CCCl)CCCl)c([N+](=O)[O-])cc1[N+](=O)[O-]` [I Cl Cl H], the “Measured logD7.4” value in [1] came to 1.515.

For the compound `NC(=O)c1cc(N(CCCl)CCBr)c([N+](=O)[O-])cc1[N+](=O)[O-]` [I Cl Br H], the “Measured logD7.4” value in data set [1] worked out at 1.61.

With `[O-][n+]1nc(CCCN2CCOCC2)[n+]([O-])c2cc3c(cc21)CCC3` [SN30000], the “net diffusion through anoxic MCLs” value in [3] is reported as “lowered by increasing proportions of activator cells”. For the same compound, the “sensitivity of activator cell lines (clonogenic survival)” value in data set [4] is “marked increases in the sensitivity”. In data set [5], the bystander effect entry was “trivially small” and the “killing of target cells as proportion of activators increases” value is reported as “increasing proportions of POR-R activators reduced killing of PORko-G targets”. In addition, the “Half-life, non-enzymatic loss in culture medium” value in data set [6] (37 °C) stood at 1000 days. Besides, in data set [6], the “F2, proportion of O2-dependent metabolism of the drug” value was 1; the Hill parameter n came out at 1.7; the “KO2, O2 concentration for half-maximum prodrug activation” value is on record as 1.14; the “Kc, intrinsic cytotoxic potency of the prodrug” value was found to be 1800 M⁻¹ s⁻¹. Besides, in data set [6], the “Kin, rate constant for transfer from the extracellular to the intracellular compartment” value was 10 min⁻¹ and the “Kout, rate constant for transfer from the intracellular to the extracellular compartment” value was determined as 10 min⁻¹. Moreover, the “Activator Kmet,0, rate constant for the maximum rate of metabolism in activator cells under anoxia” value in data set [6] (POR-R activators, adjusted to optimize monolayer fits) came to 14 min⁻¹. The “Target Kmet,0, rate constant for the maximum rate of metabolism in target cells under anoxia” value in data set [6] (PORko-G targets, adjusted to optimize monolayer fits) was found to be 1.3 min⁻¹. The “Half-life, non-enzymatic loss in culture medium” value with HCT116 cells (37 °C, published value, ref Mao et al., 2018) is 1000 days. The Hill parameter n in the data set with HCT116 cells (oxygen dependence of metabolism, published value, ref Mao et al., 2018) is on record as 1.7. Moreover, in the data set with HCT116 cells (parental HCT116 cells (listed as Target Kmet,0 published value), ref Mao et al., 2018), the “Kmet,0, rate constant for the maximum rate of metabolism under anoxia” value was 1.88 min⁻¹. Further, in the data set on HCT116 cells (setting [7]), the “F2, proportion of O2-dependent metabolism of the drug” value is reported as 1 and the “KO2, O2 concentration for half-maximum prodrug activation” value is 1.14. Besides, in the data set on HCT116 cells (setting [8]), the “Kin, rate constant for transfer from the extracellular to the intracellular compartment” value is 10 min⁻¹ and the “Kout, rate constant for transfer from the intracellular to the extracellular compartment” value is 10 min⁻¹.

For the compound `CS(=O)(=O)OCCN(CCBr)c1cc(C(=O)NCCO)c([N+](=O)[O-])cc1[N+](=O)[O-]` [I Br OSO2CH3 CH2CH2OH], the “Measured logD7.4” value in data set [1] amounted to 0.461.

As for `O=C(NCCO)c1cc(N(CCBr)CCBr)c([N+](=O)[O-])cc1[N+](=O)[O-]` [I Br Br CH2CH2OH], the “Measured logD7.4” value in [1] is 1.69.

Regarding `NC(=O)c1cc(NO)cc([N+](=O)[O-])c1N(CCCl)CCCl` [V Cl Cl H], in data set [1], the “Measured logD7.4” value turned out to be 2.19.

Turning to `CS(=O)(=O)OCCN(CCCl)c1c(C(N)=O)cc([N+](=O)[O-])cc1[N+](=O)[O-]` [IV Cl OSO2CH3 H], the “Measured logD7.4” value in data set [1] turned out to be 1.02.

In the case of `CS(=O)(=O)c1cc([N+](=O)[O-])c(C(N)=O)cc1N(CCBr)CCBr` [II Br Br H], the “Measured logD7.4” value in data set [1] was 1.18.

Regarding `O=C(NCC(O)CO)c1c([N+](=O)[O-])ccc(N(CCBr)CCBr)c1[N+](=O)[O-]` (centres unmarked) [VI Br Br CH2CHOHCH2OH], the “Measured logD7.4” value in data set [1] is 1.04.

`CS(=O)(=O)OCCN(CCBr)c1c(C(=O)NCC(O)CO)cc([N+](=O)[O-])cc1[N+](=O)[O-]` (centres unmarked) [IV Br OSO2CH3 CH2CHOHCH2OH]: in data set [1], the “Measured logD7.4” value stood at 0.589.

As for `O=C(NCCCO)c1cc(N(CCBr)CCBr)c([N+](=O)[O-])cc1[N+](=O)[O-]` [I Br Br (CH2)3OH], in data set [1], the “Measured logD7.4” value is listed as 1.81.

Turning to `CS(=O)(=O)OCCN(CCBr)c1c(C(=O)NCCO)cc([N+](=O)[O-])cc1[N+](=O)[O-]` [IV Br OSO2CH3 CH2CH2OH], the “Measured logD7.4” value in data set [1] is recorded as 1.01.

`NC(=O)c1cc([N+](=O)[O-])cc([N+](=O)[O-])c1N(CCI)CCI` [IV Iodo Iodo H]: in data set [1], the “Measured logD7.4” value was determined as 3.08.

For `O=C(NCC(O)CO)c1cc(N(CCCl)CCCl)c([N+](=O)[O-])cc1[N+](=O)[O-]` (centres unmarked) [I Cl Cl CH2CHOHCH2OH], in data set [1], the “Measured logD7.4” value is recorded as 0.93.

As for `NC(=O)c1cc([N+](=O)[O-])cc([N+](=O)[O-])c1N(CCBr)CCBr` [IV Br Br H], the “Measured logD7.4” value in data set [1] came out at 2.63.

Regarding `CS(=O)(=O)OCCN(CCCl)c1cc(C(N)=O)c([N+](=O)[O-])cc1[N+](=O)[O-]` [I Cl OSO2CH3 H], the “Measured logD7.4” value in [1] is given as 0.425.

Regarding `O=C(NCCN1CCOCC1)c1cc(N(CCCl)CCCl)c([N+](=O)[O-])cc1[N+](=O)[O-]` [I Cl Cl CH2CH2-Nmorp], the “Measured logD7.4” value in [1] is given as 1.6.

As to `O=C(NCCCO)c1cc([N+](=O)[O-])cc([N+](=O)[O-])c1N(CCCl)CCCl` [IV Cl Cl (CH2)3OH], the “Measured logD7.4” value in [1] came to 2.

In the case of `c1c2c(cc3nc(CCCN4CCOCC4)nnc13)CCC2` [nor-oxide], the “cytotoxicity of downstream metabolites of SN30000” value in data set [2] is listed as “non-cytotoxic”.

As to `O=C(NCC(O)CO)c1cc(N(CCBr)CCBr)c([N+](=O)[O-])cc1[N+](=O)[O-]` (centres unmarked) [I Br Br CH2CHOHCH2OH], in data set [1], the “Measured logD7.4” value is recorded as 1.25.

As for `NC(=O)c1c([N+](=O)[O-])ccc(N(CCCl)CCCl)c1[N+](=O)[O-]` [VI Cl Cl H], the “Measured logD7.4” value in data set [1] is 1.41.

Take `CS(=O)(=O)OCCN(CCOS(C)(=O)=O)c1cc(C(N)=O)c([N+](=O)[O-])cc1[N+](=O)[O-]` [I OSO2CH3 OSO2CH3 H]: the “Measured logD7.4” value in data set [1] is -0.701.

In the case of `CS(=O)(=O)OCCN(CCBr)c1cc(C(=O)NCC(O)CO)c([N+](=O)[O-])cc1[N+](=O)[O-]` (centres unmarked) [I Br OSO2CH3 CH2CHOHCH2OH], in data set [1], the “Measured logD7.4” value is listed as -0.0453.

As to `O=C(NCCO)c1cc([N+](=O)[O-])cc([N+](=O)[O-])c1N(CCBr)CCBr` [IV Br Br CH2CH2OH], the “Measured logD7.4” value in [1] worked out at 2.33.

Consider `NC(=O)c1cc(N(CCI)CCI)c([N+](=O)[O-])cc1[N+](=O)[O-]` [I Iodo Iodo H], for which the “Measured logD7.4” value in data set [1] turned out to be 2.408.

`O=C(NCCO)c1cc(N(CCCl)CCCl)c([N+](=O)[O-])cc1[N+](=O)[O-]` [I Cl Cl CH2CH2OH]: the “Measured logD7.4” value in data set [1] came out at 1.315.

`NC(=O)c1cc(NO)cc([N+](=O)[O-])c1N(CCO)CCO` [V OH OH H]: the “Measured logD7.4” value in [1] is on record as -1.36.

For `O=C(NCC(O)CO)c1cc(N(CCI)CCI)c([N+](=O)[O-])cc1[N+](=O)[O-]` (centres unmarked) [I Iodo Iodo CH2CHOHCH2OH], the “Measured logD7.4” value in [1] was found to be 1.79.
